The melting point is the temperature of the solid-liquid transition.

Molecules are shown by their SMILES. A value given as a limit tells only on which side of the number the result lay.

Melting point data for 89 compounds are collected here from a melting point compilation (Tetko et al.; mined from patent text by program, amines drawn as free bases though some values may be those of a salt).

In the case of `CC[C@H](C)[C@H](NC(=O)NCc1ccccc1)C(=O)N[C@H](CO)Cc1c[nH]c2ccccc12`, the melting point is 132 to 133 °C.

`CCc1nc(C)ccc1OC1SCC(O)C(O)C1O` (centres undefined) gave a melting point of 172 to 174 °C.

In turn, `O=C1c2ccsc2CCN1Cc1ccccc1` displayed a melting point of 54 °C.

Compound `CCN(CC)Cc1cc(NC(=O)Nc2ccc(Oc3cc(N)ncn3)cc2)cc(C(F)(F)F)c1` registered a melting point of 63 to 65 °C.

For `CCC(C(=O)N(C)C)n1nc(-c2ccccc2)cc1C` (centres undefined), the melting point lay in the range of 117 to 120 °C.

For `CC(=O)NC1CC(C)(C)N(OCc2cccc(C)c2)C(C)(C)C1`, the melting point was 163 to 164 °C.

`CCCCOc1cc(CCS(=O)(=O)NC(=O)OCC(C)(C)C)n(Cc2ccc(Cl)cc2Cl)n1` registered a melting point of 116 to 118 °C.

In the case of `Cc1nn(-c2c(Cl)cc(C(F)(F)F)cc2Cl)c(N)c1SC(Cl)(Cl)Cl`, the melting point worked out at 156 °C.

Consider `Cc1nc(N)sc1S(=O)(=O)NCCO`, for which the melting point worked out at 151 °C.

Regarding `Cc1cc(CCCCCCO)cc(C(C)(C)C)c1O`, the melting point amounted to 45 °C.

As to `CC(=O)N=C(N(C)C(C)=O)N(C)C1CCN(c2nc3ccccc3n2Cc2ccc(F)cc2)CC1`, the melting point came out at 176 °C.

For the compound `O=C(Nc1nnc(COc2ccccc2Cl)s1)c1ccc2c(c1)CCN(C(=O)CO)C2`, the melting point was 133 to 135 °C.

Consider `COc1ccc2c(c1O)N=CC1CCCN1C2=O` (centres undefined), for which the melting point lay in the range of 150 to 153 °C.

On to `O=Cc1cc(S(=O)(=O)O)c2cccnc2c1O`, for which the melting point lay within 286 to 288 °C.

As to `CCOC(=O)C1=C(C)NC(CSCC2CO2)=C(C(=O)OCC)C1c1cccc([N+](=O)[O-])c1` (centres undefined), the melting point fell in the range of 107 to 109 °C.

Regarding `COC(=O)C1=Cc2cc(Br)ccc2NCC1`, the melting point lay in the range of 143 to 145 °C.

Consider `COC(=O)c1ccc(OCc2ccccc2)cn1`, for which the melting point was in the range of 90 to 90.5 °C.

In turn, `CS(=O)(=O)N(C(=O)OCc1ccccc1)c1cc(OC[C@@H]2CO2)ccc1OCc1ccccc1` came in with a melting point of 78 to 80 °C.

In turn, `COc1ccc(Cn2cnc3c(-c4ccco4)nc(Cl)nc32)cc1C` displayed a melting point of 177 to 179 °C.

Consider `CC(C)c1cc(C(C)C)c(C(=O)Nc2ccc(C(=O)O)cc2)[nH]1`, for which the melting point lay within 225 to 226 °C.

The compound `CC(=O)Nc1cccc(-c2ccc3nc(-c4cccnc4N)n(-c4ccc(CNC(=O)c5ccccc5)cc4)c3n2)c1` registered a melting point of 205 to 208 °C.

`CN1Cc2ccc(Cl)cc2P1(=O)c1ccccc1` (centres undefined) came in with a melting point of 159 to 162 °C.

`O=c1ccc2ccc(OCCCCl)cc2o1` came in with a melting point of 100 to 102 °C.

As for `O=C(NC1CCCCC1)N(C(=O)c1ccccc1[N+](=O)[O-])C1CCCCC1`, the melting point was determined as 134 °C.

As to `N#Cc1nc(-c2cc(Cl)cc(Cl)c2Cl)c(N)nc1N`, the melting point is 277 to 279 °C.

Compound `COc1ccc(C2(C#Cc3ccc(N4CN=C(C)O4)s3)CCC(=O)CC2)cc1OC1CCCC1` gave a melting point of 94 to 95 °C.

The compound `COc1ccc(-n2nc(C(F)F)cc2-c2ccc(S(C)=O)cc2)cc1` (centres undefined) registered a melting point of 123 to 124 °C.

`CNC(=O)[C@H](NC(=O)c1ccc(F)cc1C(F)(F)F)[C@@H](CN)c1ccccc1` (racemic) registered a melting point of 188 °C.

`O=C(O)c1cc(=O)c2c(I)cc(Cl)cc2[nH]1` showed a melting point of 298 °C.

`CN(Cc1ccc(S(C)=O)s1)C(=O)C12CC3CC(CC(C3)C1)C2` (centres undefined): the melting point lay in the range of 91.5 to 93.5 °C.

Consider `COc1cccc2c1CN(c1nc3c(cc1F)c(=O)c(C(=O)O)cn3C1CC1)C2`, for which the melting point is greater than 300 °C.

For `Nc1cc(=O)n(Cc2cccc(Br)c2)[nH]1`, the melting point turned out to be 160 °C.

The compound `O=C(NCCOc1ccc(CC(Oc2cc(F)cc(F)c2)C(=O)O)cc1)c1ccc(-c2ccccn2)cc1` (centres undefined) showed a melting point of 150 to 151 °C.

Turning to `O=C(NCCSCc1cccc([N+](=O)[O-])c1)c1c(Cl)cccc1Cl`, the melting point was in the range of 76 to 78 °C.

`CC(=O)OCc1cccc2sc(-c3ccccc3)nc12` showed a melting point of 83 to 84 °C.

Turning to `CC(=O)Nc1ccc(Nc2c(NCc3ccco3)cc(C(=O)O)cc2S(=O)(=O)Nc2ccccc2NC(C)=O)cc1`, the melting point stood at 258 °C.

On to `COc1nc(Br)cnc1NS(=O)(=O)c1ccccc1-c1ccc(C)cc1`, for which the melting point fell in the range of 204 to 206 °C.

`COC(=O)c1cc(OC(C)=O)c2cc[nH]c2c1`: the melting point was in the range of 160 to 162 °C.

For the compound `CCCCCCCCCCCCCCCCCCOc1cc(NC(=O)OCc2ccccc2)cc(OCCCCC(=O)OC)c1`, the melting point lay within 59 to 62 °C.

`COC(=O)c1cc(C(C)=O)cnc1C1=NC(C)(C(C)C)C(=O)N1` (centres undefined): the melting point is 105 to 108 °C.

For `CC(C(O)c1ccc(OC(=O)c2ccc(CN3CCOCC3)cc2)cc1)N1CCC(O)(c2ccccc2)CC1` (centres undefined), the melting point lay within 172 to 173 °C.

`COc1ccc(C(=O)SC)c(O)c1` had a melting point of 56 to 57 °C.

With `CC(C)(C)C(=O)c1c[nH]c2ncc(N3C(=O)CCc4ccccc43)nc12`, the melting point was 257 to 259 °C.

As for `COc1ccc([N+](=O)[O-])c(-c2cc(OC)ccc2[N+](=O)[O-])c1`, the melting point was in the range of 148 to 149 °C.

As to `Cc1noc(CC(=O)Nc2ccccc2Cl)n1`, the melting point was 118 to 120 °C.

`O=C(NCCc1ccccn1)N(c1ccccc1)c1ccccc1`: the melting point worked out at 109 °C.

`CCCc1nn(C)c(C(N)=O)c1C(=O)c1ccc(N)cc1` yielded a melting point of 140 °C.

As to `O=C(NCc1ccc(Cl)cc1)c1cn(CCCc2ccccc2)c2sc(CN3CCOCC3)cc2c1=O`, the melting point was 169 to 171 °C.

In turn, `COC(=O)C1C(CC(C)C)C(C(=O)OC)C(O)(C(F)(F)F)OC1(O)C(F)(F)F` (centres undefined) displayed a melting point of 67 to 73 °C.

In turn, `CCOC(=S)Cc1nc2ccccc2s1` returned a melting point of 45 to 48 °C.

Consider `Cn1c(-c2ccc(Cl)cc2)c(C#N)c(Cl)c1C(F)(F)F`, for which the melting point worked out at 110 °C.

`CCCCOc1nc(N)c2[nH]c(=O)n(CCCCN(CCN3CCCC3)S(=O)(=O)c3cccc(CC(=O)O)c3)c2n1` displayed a melting point of 192 to 193 °C.

In the case of `COc1cc(-c2cc3ccccc3[nH]2)cc(OC)c1O`, the melting point worked out at 230 °C.

For `O=S(=O)(c1ccc(Cl)cc1)C(CCc1ccccc1)c1cc(F)ccc1F` (centres undefined), the melting point is 111 to 113 °C.

In turn, `COc1cn(-c2ccc(N3CCOCC3)c(F)c2F)nc(-c2ccnn2-c2ccccc2)c1=O` gave a melting point of 182 to 183 °C.

The compound `COc1ccc(S(=O)(=O)Nc2c(C(=O)O)cc(C#N)c(Cc3ccccc3)c2C)cc1` returned a melting point of 123 °C.

The compound `CCOC(=O)C1=CC(CF)(CF)Oc2ccc(Cl)cc21` displayed a melting point of 76 to 78 °C.

As to `CCCCCCCCCCCCCCCCC(=O)n1cc(F)c(=O)[nH]c1=O`, the melting point was determined as 102 °C.

Take `CC12CC(O)C3(F)C(CCC4=CC(=O)C=CC43C)C1CC(O)C2=O` (centres undefined): the melting point lay within 227 to 228 °C.

In turn, `N=C(N)c1ccc(S(=O)(=O)NCCc2ccc(OCC(=O)O)cc2)cc1` returned a melting point of 292 to 293 °C.

`COC(=O)[C@@H]1CCCN1S(=O)(=O)c1ccc(Cl)c(COc2cccc3c(C)cc(C)nc23)c1OC` had a melting point of 66 to 70 °C.

`N#CC1(Nc2ccccc2)CCN(C2c3ccccc3-c3ccccc32)CC1` displayed a melting point of 165 °C.

`CN(C)CCNC(=O)c1c[nH]c(=S)n1C1CCc2c(F)cc(F)cc2C1` (centres undefined) registered a melting point of 125 °C.

`C=CC(=O)c1ccc(O)c(Cl)c1Cl` showed a melting point of 135 to 137 °C.

The compound `CC(C)N1C(=O)c2cncnc2Nc2ccccc21` gave a melting point of 204 to 206 °C.

On to `NC(=O)c1ccc(F)c2c1CC(N)CO2` (centres undefined), for which the melting point is 229 °C.

With `COc1cc(N)c(Cl)cc1C(=O)NCC1CN(CC2CCN(C(=O)N(C)C)CC2)CCO1` (centres undefined), the melting point is 179 to 180 °C.

`O=C(O)C1=Cc2c(ccc(Cl)c2-c2ccsc2)OC1C(F)(F)F` (centres undefined) had a melting point of 211 to 214 °C.

In the case of `COC(=O)C(C)(C)OCC#Cc1cc(Cl)ccc1NS(=O)(=O)c1ccc2nc(NC(C)=O)sc2c1`, the melting point came out at 80 °C.

`N#CN=C(Nc1ccc(NCCF)nc1)Oc1ccccc1` came in with a melting point of 157 to 158 °C.

`Cn1ncnc1COc1nc2c(cc1-c1ccsc1)nnn2-c1c(F)cccc1F` came in with a melting point of 171 to 172 °C.

`CC(=O)Nc1ccc(F)cc1C(=O)O`: the melting point lay in the range of 168 to 170 °C.

Turning to `N#CC1OC(=O)c2c(F)cccc21` (centres undefined), the melting point is 117 to 120 °C.

For the compound `CC(CSC(=S)N(C)C)[N+](=O)[O-]` (centres undefined), the melting point lay in the range of 38.5 to 41 °C.

In turn, `O=C(c1ccc(F)cc1)N1CCOC(c2nc(-c3ccc(F)cc3)no2)C1` (centres undefined) had a melting point of 116 to 117 °C.

`Cn1cncc1COCC(O)c1ccc(OCc2ccccc2)cc1` (centres undefined) displayed a melting point of 148 to 150 °C.

Take `Cc1ccc(N(C)C2CCN(CC(=O)Nc3ccc(NS(C)(=O)=O)cc3)CC2)cc1`: the melting point was 128 to 130 °C.

With `CC(C)(C)[C@H](O)[C@@H](C#N)c1ccccc1` (racemic), the melting point was 70.7 to 71.2 °C.

For `OC(CCCc1ccc(Cl)cc1)Cn1ccnc1` (centres undefined), the melting point was 84 to 85 °C.

The compound `CCOC(=O)c1ccc2c(=O)n3cc(C(=O)O)ccc3nc2c1` registered a melting point of 275 to 324 °C.

`NC(=O)C(NCCc1cccs1)c1ccccc1Cl` (centres undefined) displayed a melting point of 90 to 92 °C.

`CCOC(=O)c1cccc2ncc(CN(C)C)n12` had a melting point of 117 to 118 °C.

`O=c1n(CCCF)nnn1-c1cc(Oc2ncccn2)c(Cl)cc1F` registered a melting point of 111 to 113 °C.

The compound `Cn1cc(C2=C(c3c4n(c5ccccc35)CCCC4)C(=O)OC2=O)c2ccccc21` had a melting point of 276 to 278 °C.

Compound `COc1cc2c(cc1OC)C1(CCC2=O)CCC(=O)N(C)C1=O` (centres undefined) displayed a melting point of 168 to 170 °C.

For `C=CC1(c2ccccc2)OC(C(=O)OC)Oc2ccc(Cl)cc21` (centres undefined), the melting point stood at 78 °C.

For the compound `Nc1ncccc1-c1nc2ccc(-c3ccc(CO)cc3)nc2n1-c1ccc(CNC(=O)c2ccccc2)cc1`, the melting point is 118 to 120 °C.

The compound `CCOC(=O)C(=CNC1CC1)C(=O)c1c(F)c(C)c(F)c(F)c1[N+](=O)[O-]` showed a melting point of 115 to 116 °C.

`COC(=O)c1ccc(NC(=O)c2ccccc2OC(C)C)c(C(=O)OC)c1` yielded a melting point of 107 to 110 °C.
